# Measured values published in patent US10568876B2, “Tetrahydroisoquinoline derivatives useful as inhibitors of diacylglyceride O-acyltransferase 2” (Merck Sharp & Dohme Corp., priority 2014, dated 2020).
# Biological target: hDGAT2 (Homo sapiens (Human), UniProt Q96PD7)
# Assay: DGAT2 Enzymatic Activity Assay
# Format: biochemical
# Details: hDGAT2 Sf-9 membrane prep; 25 μM diolein, 10 μM oleoyl-CoA; triolein product by LC/MS/MS; read-out: IC50 values for inhibition of DGAT2
# Protocol: Sf-9 insect cells were maintained in Grace's insect cell culture medium with 10% heated-inactivated fetal bovine serum, 1% Pluronic F-68 and 0.14 μg/ml Kanamycine sulfate in Erlenmeyer flasks at 28° C. in a shaker incubator. After infection with untagged hDGAT2 baculovirus at multiplicity of infection (MOI) 0.1 for 48 hours, cells were harvested. Cell pellets were suspended in buffer containing 10 mM Tris-HCl (pH 7.5), 1 mM EDTA (pH 8.0), 250 mM sucrose and Complete Protease Inhibitor Cocktail (Roche Diagnostics Corp., Indianapolis, Ill.), and sonicated on ice. Membrane fractions were isolated by ultracentrifugation (100,000×g pellet), resuspended in the same buffer, and frozen (−80° C.) for later use. The protein concentration was determined with the BCA Protein Assay kit (Pierce Biotechnology Inc., Rockford, Ill.). Expression of protein levels was analyzed by immunoblotting with goat polyclonal DGAT2 antibody C-15 and donkey anti-goat IgG HRP (Santa Cruz Biotechnology, Inc., Santa Cruz, Calif.) followed by detection with ECL reagent (GE Healthcare, Piscataway, N.J.).
# LC/MS/MS analyses were performed using Thermal Fisher's LX4-TSQ Vantage system. This system consists of an Agilent binary high-performance liquid chromatography (HPLC) pumps and a TSQ Vantage triple quadrupole MS/MS instrument. For each sample, 2 μL, samples from the top organic layer of in-plate liquid-liquid extraction were injected onto a Thermo Betabasic C4 column (2.1 mm×20 mm, 5 μm particle size). The samples were then eluted using the following conditions; mobile phase: methanol/water with 0.1% ammonium format=92/8 (v/v), flow rate: 1 mL/min, temperature: 25 C. Data was acquired in positive mode using a heated electrospray ionization (HESI) interface. The operational parameters for the TSQ Vantage MS/MS instrument were a spray voltage of 3000 V, capillary temperature of 280° C., vaporizer temperature 400° C., shealth gas 60 arbitrary unit, Aux gas 40 arbitrary units, S-lens 113 and collision gas 0.16 Pascals. […] (SRM) chromatograms of triolein (Q1: 902.9>Q3: 602.3) and internal standard (Q1: 902.9>Q3: 602.3) were collected for 40 sec. The peak area was integrated by Xcalibur Quan software. The ratio between the triolein generated in the reaction and spiked in internal standard were used to generate percentage inhibition and IC50 values. Compound percentage inhibition was calculated by the following formula: Inhibition %=1-[(compound response low control)/(high control low control)]×100%. Potent compounds were titrated and IC50 were calculated by 4 parameter sigmoidal curve fitting formula.
# DGAT2 activity was determined by measuring the amount of enzymatic product triolein (1,2,3-Tri(cis-9-octadecenoyl)glycerol) using the membrane prep mentioned above. The assay was carried out in deep well 384 plates in a final volume of 40 μL at room temperature. The assay mixture contained the following: assay buffer (100 mM Tris.Cl, pH 7.0, 20 mM MgCl2, 5% ethanol), 25 μM of diolein, 10 μM of oleoyl-CoA and 10 ng/μL of DGAT2 membrane.
# hDGAT2, sequence (Q96PD7 whole entry): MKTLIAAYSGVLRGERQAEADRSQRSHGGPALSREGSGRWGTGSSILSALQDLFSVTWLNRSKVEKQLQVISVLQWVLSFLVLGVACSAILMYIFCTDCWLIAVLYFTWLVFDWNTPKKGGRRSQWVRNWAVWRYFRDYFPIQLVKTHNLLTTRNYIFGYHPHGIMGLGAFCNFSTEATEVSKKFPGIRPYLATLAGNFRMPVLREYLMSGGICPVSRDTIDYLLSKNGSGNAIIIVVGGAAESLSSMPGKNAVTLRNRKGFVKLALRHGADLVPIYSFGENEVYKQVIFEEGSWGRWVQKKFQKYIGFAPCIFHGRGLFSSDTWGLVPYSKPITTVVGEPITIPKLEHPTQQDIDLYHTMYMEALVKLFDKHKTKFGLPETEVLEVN
row,IC50,Compound
1,1170 nM,"Cn1nccc1-c1ccc(CNC(=O)[C@@H]2C[C@H]2c2ccccc2)c2c1CCN(C(=O)NC(C)(C)C)C2 (relative stereo) [Example 30, N-(tert-butyl)-5-(1-methyl-1H-pyrazol-5-yl)-8-(((trans)-2-phenylcyclopropanecarboxamido)methyl)-3,4-dihydroisoquinoline-2(1H)-carboxamide]"
2,2860 nM,"Cn1nnc2ccc(-c3ccc(CNC(=O)[C@@H]4C[C@H]4c4ccccc4)c4c3CCN(C(=O)NC(C)(C)C)C4)cc21 (relative stereo) [Example 33, N-(tert-butyl)-5-(1-methyl-1H-benzo[d][1,2,3]triazol-6-yl)-8-(((trans)-2-phenylcyclopropanecarboxamido)methyl)-3,4-dihydroisoquinoline-2(1H)-carboxamide]"
3,352 nM,"CC(=O)Nc1cccc(-c2ccc(CNC(=O)[C@@H]3C[C@H]3c3ccccc3)c3c2CCN(C(=O)NC(C)(C)C)C3)c1 (relative stereo) [Example 36, 5-(3-acetamidophenyl)-N-(tert-butyl)-8-(((trans)-2-phenylcyclopropanecarboxamido)methyl)-3,4-dihydroisoquinoline-2(1H)-carboxamide]"
4,95.6 nM,"CC(C)Cn1cc(-c2ccc(CNC(=O)[C@@H]3C[C@H]3c3ccccc3)c3c2CCN(C(=O)NC(C)(C)C)C3)cn1 (relative stereo) [Example 37, N-(tert-butyl)-5-(1-isobutyl-1H-pyrazol-4-yl)-8-(((trans)-2-phenylcyclopropanecarboxamido)methyl)-3,4-dihydroisoquinoline-2(1H)-carboxamide]"
5,155 nM,"CC(C)(C)NC(=O)N1CCc2c(-c3cccc(C(N)=O)c3)ccc(CNC(=O)[C@@H]3C[C@H]3c3ccccc3)c2C1 (relative stereo) [Example 42, N-(tert-butyl)-5-(3-carbamoylphenyl)-8-(((trans)-2-phenylcyclopropanecarboxamido)methyl)-3,4-dihydroisoquinoline-2(1H)-carboxamide]"
6,3130 nM,"CC(C)(C)NC(=O)N1CCc2c(-c3ccn4ncnc4c3)ccc(CNC(=O)[C@@H]3C[C@H]3c3ccccc3)c2C1 (relative stereo) [Example 43, 5-([1,2,4]triazolo[1,5-a]pyridin-7-yl)-N-(tert-butyl)-8-(((trans)-2-phenylcyclopropanecarboxamido)methyl)-3,4-dihydroisoquinoline-2(1H)-carboxamide]"
7,2650 nM,"CC(C)(C)NC(=O)N1CCc2c(-c3ccc4c(c3)CNC4=O)ccc(CNC(=O)[C@@H]3C[C@H]3c3ccccc3)c2C1 (relative stereo) [Example 45, N-(tert-butyl)-5-(1-oxoisoindolin-5-yl)-8-(((trans)-2-phenylcyclopropanecarboxamido)methyl)-3,4-dihydroisoquinoline-2(1H)-carboxamide]"
8,0.66 nM,"CCOC(=O)c1cncc(-c2ccc(CNC(=O)[C@@H]3C[C@H]3c3ccccc3)c3c2CCN(C(=O)NC(C)(C)C)C3)c1 (relative stereo) [Example 46, ethyl 5-(2-(tert-butylcarbamoyl)-8-(((trans)-2-phenylcyclopropanecarboxamido)methyl)-1,2,3,4-tetrahydroisoquinolin-5-yl)nicotinate]"
9,173 nM,"CC(C)(C)NC(=O)N1CCc2c(-c3cncc(C(F)(F)F)c3)ccc(CNC(=O)[C@@H]3C[C@H]3c3ccccc3)c2C1 (relative stereo) [Example 47, N-(tert-butyl)-8-(((trans)-2-phenylcyclopropanecarboxamido)methyl)-5-(5-(trifluoromethyl)pyridin-3-yl)-3,4-dihydroisoquinoline-2(1H)-carboxamide]"

# The remaining lines, values behind:
row,Compound,IC50
1,"Cc1cc(C)n(-c2cccc(-c3ccc(CNC(=O)[C@@H]4C[C@H]4c4ccccc4)c4c3CCN(C(=O)NC(C)(C)C)C4)c2)n1 (relative stereo) [Example 31, N-(tert-butyl)-5-(3-(3,5-dimethyl-1H-pyrazol-1-yl)phenyl)-8-(((trans)-2-phenylcyclopropanecarboxamido)methyl)-3,4-dihydroisoquinoline-2(1H)-carboxamide]",6090 nM
2,"CC(C)(C)NC(=O)N1CCc2c(-c3ccnc4[nH]ccc34)ccc(CNC(=O)[C@@H]3C[C@H]3c3ccccc3)c2C1 (relative stereo) [Example 32, N-(tert-butyl)-8-(((trans)-2-phenylcyclopropanecarboxamido)methyl)-5-(1H-pyrrolo[2,3-b]pyridin-4-yl)-3,4-dihydroisoquinoline-2(1H)-carboxamide]",1460 nM
3,"CC(C)(C)NC(=O)N1CCc2c(-c3cccc(-n4cccn4)c3)ccc(CNC(=O)[C@@H]3C[C@H]3c3ccccc3)c2C1 (relative stereo) [Example 34, 5-(3-(1H-pyrazol-1-yl)phenyl)-N-(tert-butyl)-8-(((trans)-2-phenylcyclopropanecarboxamido)methyl)-3,4-dihydroisoquinoline-2(1H)-carboxamide]",11.6 nM
4,"CC(C)(C)NC(=O)N1CCc2c(-c3cnn(-c4ccccc4)c3)ccc(CNC(=O)[C@@H]3C[C@H]3c3ccccc3)c2C1 (relative stereo) [Example 35, N-(tert-butyl)-5-(1-phenyl-1H-pyrazol-4-yl)-8-(((trans)-2-phenylcyclopropanecarboxamido)methyl)-3,4-dihydroisoquinoline-2(1H)-carboxamide]",1170 nM
5,"CC(C)(C)NC(=O)N1CCc2c(-c3cccc(C(=O)NC4CC4)c3)ccc(CNC(=O)[C@@H]3C[C@H]3c3ccccc3)c2C1 (relative stereo) [Example 38, N-(tert-butyl)-5-(3-(cyclopropylcarbamoyl)phenyl)-8-(((trans)-2-phenylcyclopropanecarboxamido)methyl)-3,4-dihydroisoquinoline-2(1H)-carboxamide]",1430 nM
6,"CC(C)(C)NC(=O)N1CCc2c(-c3cccc(NS(C)(=O)=O)c3)ccc(CNC(=O)[C@@H]3C[C@H]3c3ccccc3)c2C1 (relative stereo) [Example 39, N-(tert-butyl)-5-(3-(methylsulfonamido)phenyl)-8-(((trans)-2-phenylcyclopropanecarboxamido)methyl)-3,4-dihydroisoquinoline-2(1H)-carboxamide]",832 nM
7,"CC(C)(C)NC(=O)N1CCc2c(-c3cnn(Cc4ccccc4)c3)ccc(CNC(=O)[C@@H]3C[C@H]3c3ccccc3)c2C1 (relative stereo) [Example 40, 5-(1-benzyl-1H-pyrazol-4-yl)-N-(tert-butyl)-8-(((trans)-2-phenylcyclopropanecarboxamido)methyl)-3,4-dihydroisoquinoline-2(1H)-carboxamide]",4790 nM
8,"Cc1noc(C)c1-c1ccc(CNC(=O)[C@@H]2C[C@H]2c2ccccc2)c2c1CCN(C(=O)NC(C)(C)C)C2 (relative stereo) [Example 41, N-(tert-butyl)-5-(3,5-dimethylisoxazol-4-yl)-8-(((trans)-2-phenylcyclopropanecarboxamido)methyl)-3,4-dihydroisoquinoline-2(1H)-carboxamide]",1440 nM
9,"CC(C)(C)NC(=O)N1CCc2c(-c3cccc4c3CNC4=O)ccc(CNC(=O)[C@@H]3C[C@H]3c3ccccc3)c2C1 (relative stereo) [Example 44, N-(tert-butyl)-5-(1-oxoisoindolin-4-yl)-8-(((trans)-2-phenylcyclopropanecarboxamido)methyl)-3,4-dihydroisoquinoline-2(1H)-carboxamide]",7480 nM
10,"CC(C)(C)NC(=O)N1CCc2c(-c3cccc(-n4nccn4)c3)ccc(CNC(=O)[C@@H]3C[C@H]3c3ccccc3)c2C1 (relative stereo) [Example 48, 5-(3-(2H-1,2,3-triazol-2-yl)phenyl)-N-(tert-butyl)-8-(((trans)-2-phenylcyclopropanecarboxamido)methyl)-3,4-dihydroisoquinoline-2(1H)-carboxamide]",97.6 nM
11,"CC(C)(C)NC(=O)N1CCc2c(-c3cccc(-c4nnco4)c3)ccc(CNC(=O)[C@@H]3C[C@H]3c3ccccc3)c2C1 (relative stereo) [Example 49, 5-(3-(1,3,4-oxadiazol-2-yl)phenyl)-N-(tert-butyl)-8-(((trans)-2-phenylcyclopropanecarboxamido)methyl)-3,4-dihydroisoquinoline-2(1H)-carboxamide]",10.4 nM
